Data: patent US6933304B2, “Heteroarylalkanoic acids as integrin receptor antagonists” (Pharmacia Corporation, priority 2000, dated 2005)

Target: T1, Human vitronectin receptor αVβ3 (Homo sapiens, UniProt P05106+P06756)
T1 construct: Human vitronectin receptors αVβ3 and αVβ5 were purified from human placenta; from tissue; host or cells: human placenta
Assay: Vitronectin adhesion assay (solid phase receptor assay)
Format: binding
Settings: positive control included on each plate; read-out: IC50 αVβ3 antagonist (positive control)
Procedure: Human vitronectin receptors αVβ3 and αVβ5 were purified from human placenta as previously described [Pytela et al., Methods in Enzymology, 144:475-489 (1987)]. Human vitronectin was purified from fresh frozen plasma as previously described [Yatohgo et al., Cell Structure and Function, 13:281-292 (1988)]. Biotinylated human vitronectin was prepared by coupling NHS-biotin from Pierce Chemical Company (Rockford, Ill.) to purified vitronectin as previously described [Charo et al., J. Biol. Chem., 266(3):1415-1421 (1991)]. Assay buffer, OPD substrate tablets, and RIA grade BSA were obtained from Sigma (St. Louis, Mo.). Anti-biotin antibody was obtained from Sigma (St. Louis, Mo.). Nalge Nunc-Immuno microtiter plates were obtained from Nalge Company (Rochester, N.Y.).
This assay was essentially the same as previously reported [Niiya et al., Blood, 70:475-483 (1987)]. […] The plate was read with a microtiter plate reader at a wavelength of 450 nm and when the maximum-binding control wells reached an absorbance of about 1.0, the final A450 were recorded for analysis. The data were analyzed using a macro written for use with the EXCEL spreadsheet program. The mean, standard deviation, and % CV were determined for duplicate concentrations. […]

T1 sequence (P06756 31-889 limits assumed): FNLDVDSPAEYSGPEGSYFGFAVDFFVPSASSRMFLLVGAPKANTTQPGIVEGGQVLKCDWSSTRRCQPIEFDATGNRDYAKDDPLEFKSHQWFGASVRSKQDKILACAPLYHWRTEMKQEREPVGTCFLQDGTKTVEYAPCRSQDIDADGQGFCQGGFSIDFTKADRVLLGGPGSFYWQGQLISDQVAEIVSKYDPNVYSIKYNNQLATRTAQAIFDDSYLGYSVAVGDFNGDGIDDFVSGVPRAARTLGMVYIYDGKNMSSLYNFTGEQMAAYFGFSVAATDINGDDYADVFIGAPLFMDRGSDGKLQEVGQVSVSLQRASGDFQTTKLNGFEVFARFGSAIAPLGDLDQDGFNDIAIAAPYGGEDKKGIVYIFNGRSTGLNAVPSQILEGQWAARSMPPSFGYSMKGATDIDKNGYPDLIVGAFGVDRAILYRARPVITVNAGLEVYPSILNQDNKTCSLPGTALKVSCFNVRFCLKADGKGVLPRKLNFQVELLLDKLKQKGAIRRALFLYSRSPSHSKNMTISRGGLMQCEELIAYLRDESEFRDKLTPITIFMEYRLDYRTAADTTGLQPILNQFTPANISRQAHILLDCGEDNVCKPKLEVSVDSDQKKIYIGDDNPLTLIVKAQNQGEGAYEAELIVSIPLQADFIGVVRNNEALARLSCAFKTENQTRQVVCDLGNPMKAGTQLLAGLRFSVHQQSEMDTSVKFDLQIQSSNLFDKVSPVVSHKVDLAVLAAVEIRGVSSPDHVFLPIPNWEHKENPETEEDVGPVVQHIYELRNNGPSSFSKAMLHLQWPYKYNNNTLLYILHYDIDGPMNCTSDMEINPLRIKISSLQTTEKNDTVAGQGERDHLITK
T1 sequence (P06756 891-1048 partner limits assumed): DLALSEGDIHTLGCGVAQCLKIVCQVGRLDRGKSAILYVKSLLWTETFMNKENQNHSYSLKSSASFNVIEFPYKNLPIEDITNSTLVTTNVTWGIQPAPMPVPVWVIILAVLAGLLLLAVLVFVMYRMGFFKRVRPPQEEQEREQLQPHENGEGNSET
T1 sequence (P05106 27-788): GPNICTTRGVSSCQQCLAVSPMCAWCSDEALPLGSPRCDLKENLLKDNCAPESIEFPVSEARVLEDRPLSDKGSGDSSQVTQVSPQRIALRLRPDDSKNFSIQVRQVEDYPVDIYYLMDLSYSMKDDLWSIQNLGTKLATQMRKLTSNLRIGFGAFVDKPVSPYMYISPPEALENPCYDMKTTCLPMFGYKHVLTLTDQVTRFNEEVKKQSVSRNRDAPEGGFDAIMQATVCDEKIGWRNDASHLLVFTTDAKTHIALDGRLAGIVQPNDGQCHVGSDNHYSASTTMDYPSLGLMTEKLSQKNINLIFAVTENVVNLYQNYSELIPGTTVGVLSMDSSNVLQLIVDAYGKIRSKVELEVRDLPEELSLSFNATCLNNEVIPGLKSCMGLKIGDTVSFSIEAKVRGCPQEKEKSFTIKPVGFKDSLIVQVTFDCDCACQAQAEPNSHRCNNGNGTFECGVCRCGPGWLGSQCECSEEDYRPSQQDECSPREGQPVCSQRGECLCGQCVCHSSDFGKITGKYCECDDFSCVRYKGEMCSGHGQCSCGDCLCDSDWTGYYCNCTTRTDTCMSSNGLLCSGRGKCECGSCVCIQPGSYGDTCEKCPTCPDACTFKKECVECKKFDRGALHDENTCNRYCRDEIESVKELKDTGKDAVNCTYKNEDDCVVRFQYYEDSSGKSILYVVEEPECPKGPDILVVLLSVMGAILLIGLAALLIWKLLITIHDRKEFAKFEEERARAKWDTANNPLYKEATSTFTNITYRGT

## β-[[2-[[5-[(aminoiminomethyl)amino]-1-oxopentyl]amino]-1-oxoethyl]amino]-3-pyridinepropanoic acid
  IC50: 3 to 10 nM
